Test results taken from patent US10053468B2, “Heterocyclic compound” (TAKEDA PHARMACEUTICAL COMPANY LIMITED, priority 2013, dated 2018).
Read-outs that look alike come from different tables or passages of the source.

Legend:
RORγt [1] = target: T1, RORγt (Homo sapiens, UniProt P51449); test: RORγt binding test using fluorescent-labeled synthetic ligand (TR-FRET); conditions: read-out: Binding inhibitory rate of fluorescent-labeled synthetic ligand to RORγt at test compound 1 μM (%)
T1 sequence (P51449 1-497 isoform P51449-2): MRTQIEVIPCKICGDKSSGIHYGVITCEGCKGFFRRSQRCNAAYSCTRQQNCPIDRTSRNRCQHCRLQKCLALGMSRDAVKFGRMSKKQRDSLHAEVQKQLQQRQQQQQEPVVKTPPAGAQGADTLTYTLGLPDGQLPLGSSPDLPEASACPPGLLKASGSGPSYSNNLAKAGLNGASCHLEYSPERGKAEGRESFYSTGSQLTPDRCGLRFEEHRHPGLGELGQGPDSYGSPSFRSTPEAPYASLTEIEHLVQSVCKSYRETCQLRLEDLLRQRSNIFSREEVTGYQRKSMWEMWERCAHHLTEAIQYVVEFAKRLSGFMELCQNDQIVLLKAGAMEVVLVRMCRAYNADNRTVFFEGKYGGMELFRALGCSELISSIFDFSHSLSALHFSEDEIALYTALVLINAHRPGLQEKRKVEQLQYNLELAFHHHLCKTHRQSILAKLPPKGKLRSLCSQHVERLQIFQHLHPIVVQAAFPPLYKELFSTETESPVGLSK
Protocol: RORγt Binding Test Using Fluorescent-labeled Synthetic Ligand
(§1) The binding activity of the test compound to RORγt was measured by a time resolved fluorescence resonance energy transfer method (TR-FRET) utilizing histidine-tagged RORγt, fluorescent-labeled synthetic ligand, and terbium-labeled anti-histidine tag antibody (Invitrogen). First, a test compound diluted with an assay buffer (20 mM Tris-HCl (pH 7.5), 100 mM NaCl, 1 mM DTT, 0.1% BSA) was added to a 384 well plate by 3 μL. Then, RORγt diluted with an assay buffer to 240 nM was added by 3 μL, after which fluorescent-labeled synthetic ligand diluted with the assay buffer to 12 μM was added by 3 μL, and the mixture was stood at room temperature for 20 min. Thereafter, a terbium-labeled anti-histidine tag antibody diluted with the assay buffer to 8 nM was added by 3 μL. The mixture was stood at room temperature for 20 min, and fluorescence intensity (excitation wavelength 320 nm, fluorescence wavelength 520 nm, delay time 100 microseconds) was measured by Envision (PerkinElmer).

RORγt [2] = target: T1, RORγt; test: Jurkat reporter test (human IL-17 ROR response element luciferase, RORγt vector); format: cell-based; conditions: read-out: Luminescence level inhibitory rate at test compound 3 μM (%)
Protocol: The Jurkat cells used for the reporter test were cultured in a culture medium (RPMI (Invitrogen), 10% FCS (AusGeneX), 100 U/mL penicillin, 100 μg/mL streptomycin). On the day of the test, 4×10^7 cells were recovered by a centrifugal operation (1000 rpm, 5 min.) and suspended in PBS (phosphate buffered saline) (Invitrogen). Thereafter, the cells were recovered again by a centrifugal operation, and suspended in 2 mL of R buffer (NEON transfection kit, Invitrogen). […] Gene transfer was performed by Electroporation apparatus (NEON, Invitrogen) under the conditions of pulse voltage 1350 V, interval 10 milliseconds, number of times 3. The cells after gene transfer were suspended in 40 mL of a reaction medium (RPMI, 10% Lipid reduced FCS (HyClone), 10 mM HEPES (pH 7.5), 100 U/mL penicillin, 100 μg/mL streptomycin, 5 μM lovastatin), and plated in a 96 well plate by 90 μL. A test compound diluted with the reaction medium was added by 10 μL, and the cells were cultured overnight in an incubator. Bright-Glo (Promega) was added by 100 μL, and the mixture was stirred at room temperature for 10 min, and the luminescence level was measured by Envision (PerkinElmer).

RORγt [3] = target: T1, RORγt; test: Cofactor recruitment test (Alpha Screen, biotinylated SRC-1 peptide); format: biochemical; conditions: read-out: Signal value inhibitory rate at test compound 1 μM (%)
Protocol: Cofactor Recruitment Test
Cofactor recruitment test was performed by Alpha Screen (Histidine Detection Kit, PerkinElmer) method. First, a test compound was diluted with an assay buffer (50 mM Tris-HCl (pH 7.5), 50 mM KCl, 1 mM DTT, 0.1% BSA) and added to a 384 well plate by 5 μL. […] The mixture was stood in a dark place for 1 hr, and the signal value was measured by Envision (PerkinElmer).

RORγt [4] = target: T1, RORγt; test: RORγt binding test using fluorescent-labeled cholesterol (TR-FRET); conditions: read-out: Binding inhibitory rate of fluorescent-labeled cholesterol to RORγt at test compound 1 μM (%)
Protocol: RORγt Binding Test Using Fluorescent-labeled Cholesterol
as §1, with “cholesterol (BODIPY-cholesterol, AVIVA),” for “synthetic ligand,”, “cholesterol” for “synthetic ligand”

[5] = test compound 3 μM, Jurkat cells

## COc1ccc2c(c1)CCN(C(=O)[C@@H](O)CCC(=O)O)[C@H]2C(=O)Nc1cc(F)c([Si](C)(C)C)c(F)c1 [Example 248, (4S)-5-((1R)-1-((3,5-difluoro-4-(trimethylsilyl)phenyl)carbamoyl)-6-methoxy-3,4-dihydroisoquinolin-2(1H)-yl)-4-hydroxy-5-oxopentanoic acid]
RORγt [1]
  inhibition at 1 µM: 101%
RORγt [2]; Jurkat
  inhibition at 3 µM: 100%
RORγt [3]
  inhibition at 1 µM: 87%

## CCOc1ccc2c(c1)CCN(C(=O)NCCC(=O)O)[C@H]2C(=O)Nc1cc(F)c([Si](C)(C)C)c(F)c1 [Example 227, N-(((1R)-1-((3,5-difluoro-4-(trimethylsilyl)phenyl)carbamoyl)-6-ethoxy-3,4-dihydroisoquinolin-2(1H)-yl)carbonyl)-beta-alanine]
RORγt [1]
  inhibition at 1 µM: 102%
RORγt [2]; Jurkat
  inhibition at 3 µM: 101%
RORγt [3]
  inhibition at 1 µM: 95%

## C[Si](C)(C)c1c(F)cc(NC(=O)[C@H]2c3ccc(OC(F)F)cc3CCN2C(=O)CCCC(=O)O)cc1F [Example 196, 5-((1R)-6-(difluoromethoxy)-1-((3,5-difluoro-4-(trimethylsilyl)phenyl)carbamoyl)-3,4-dihydroisoquinolin-2 (1H)-yl)-5-oxopentanoic acid]
RORγt [1]
  inhibition at 1 µM: 102%
RORγt [2]; Jurkat
  inhibition at 3 µM: 100%
RORγt [3]
  inhibition at 1 µM: 91%

## CCOc1ccc2c(c1)CCN(C(=O)CCCC(=O)O)[C@H]2C(=O)Nc1ccc([Si](C)(C)C)c(C#N)c1 [Example 221, 5-((1R)-1-((3-cyano-4-(trimethylsilyl)phenyl)carbamoyl)-6-ethoxy-3,4-dihydroisoquinolin-2(1H)-yl)-5-oxopentanoic acid]
RORγt [1]
  inhibition at 1 µM: 102%
RORγt [2]; Jurkat
  inhibition at 3 µM: 101%
RORγt [3]
  inhibition at 1 µM: 97%

## CCOc1ccc2c(c1)CCN(C(=O)CCCC(=O)O)[C@H]2C(=O)Nc1cc(F)c2c(c1)CCC2(C)C [Example 182, 5-((1R)-6-ethoxy-1-((7-fluoro-1,1-dimethyl-2,3-dihydro-1H-inden-5-yl)carbamoyl)-3,4-dihydroisoquinolin-2(1H)-yl)-5-oxopentanoic acid]
RORγt [1]
  inhibition at 1 µM: 101%
RORγt [2]; [5]
  inhibition at 3 µM: 99%
RORγt [3]
  inhibition at 1 µM: 67%

## CCOc1ccc2c(c1)CCN(C(=O)NCCCC(=O)O)[C@H]2C(=O)Nc1cc(F)c([Si](C)(C)C)c(F)c1 [Example 238, 4-((((1R)-1-((3,5-difluoro-4-(trimethylsilyl)phenyl)carbamoyl)-6-ethoxy-3,4-dihydroisoquinolin-2(1H)-yl)carbonyl)amino)butanoic acid]
RORγt [1]
  inhibition at 1 µM: 101%
RORγt [2]; Jurkat
  inhibition at 3 µM: 100%
RORγt [3]
  inhibition at 1 µM: 92%

## CCOc1ccc2c(n1)CCN(C(=O)c1cc(O)no1)[C@H]2C(=O)Nc1cc(F)c2c(c1)CCC2(C)C [Example 145, (5R)-2-ethoxy-N-(7-fluoro-1,1-dimethyl-2,3-dihydro-1H-inden-5-yl)-6-((3-hydroxy-1,2-oxazol-5-yl)carbonyl)-5,6,7,8-tetrahydro-1,6-naphthyridine-5-carboxamide]
RORγt [4]
  inhibition at 1 µM: 102%
RORγt [2]; [5]
  inhibition at 3 µM: 100%
RORγt [3]
  inhibition at 1 µM: 92%

## COc1ccc2c(c1)CCN(C(=O)CC#N)[C@H]2C(=O)Nc1cc(F)c(C(C)(C)C)c(F)c1 [Example 84, (1R)-N-(4-tert-butyl-3,5-difluorophenyl)-2-(cyanoacetyl)-6-methoxy-1,2,3,4-tetrahydroisoquinoline-1-carboxamide]
RORγt [4]
  inhibition at 1 µM: 101%
RORγt [2]; [5]
  inhibition at 3 µM: 100%
RORγt [3]
  inhibition at 1 µM: 92%

## CCOc1ccc2c(n1)CCN(C(=O)Cc1cc(O)no1)[C@H]2C(=O)Nc1cc(F)c([Si](C)(C)C)c(F)c1 [Example 128, (5R)-N-(3,5-difluoro-4-(trimethylsilyl)phenyl)-2-ethoxy-6-((3-hydroxy-1,2-oxazol-5-yl)acetyl)-5,6,7,8-tetrahydro-1,6-naphthyridine-5-carboxamide]
RORγt [4]
  inhibition at 1 µM: 103%
RORγt [2]; Jurkat
  inhibition at 3 µM: 103%
RORγt [3]
  inhibition at 1 µM: 100%

## COc1ccc2c(c1)CCN(C(=O)Cc1nnc(C)o1)[C@H]2C(=O)Nc1ccc(C(C)(C)C)c(F)c1 [Example 28, (1R)-N-(4-tert-butyl-3-fluorophenyl)-6-methoxy-2-((5-methyl-1,3,4-oxadiazol-2-yl)acetyl)-1,2,3,4-tetrahydroisoquinoline-1-carboxamide]
RORγt [4]
  inhibition at 1 µM: 102%
RORγt [2]; [5]
  inhibition at 3 µM: 101%
RORγt [3]
  inhibition at 1 µM: 83.2%

## CC[Si](C)(C)c1c(F)cc(NC(=O)[C@H]2c3ccc(OC)cc3CCN2C(=O)CCC(=O)O)cc1F [Example 87, 4-((1R)-1-((4-(ethyl (dimethyl)silyl)-3,5-difluorophenyl)carbamoyl)-6-methoxy-3,4-dihydroisoquinolin-2 (1H)-yl)-4-oxobutanoic acid]
RORγt [4]
  inhibition at 1 µM: 102%
RORγt [2]; Jurkat
  inhibition at 3 µM: 102%
RORγt [3]
  inhibition at 1 µM: 98%

## CC[Si](C)(C)c1c(F)cc(NC(=O)[C@H]2c3ccc(OC)cc3CCN2C(=O)Cc2cc(O)no2)cc1F [Example 88, (1R)-N-(4-(ethyl (dimethyl)silyl)-3,5-difluorophenyl)-2-((3-hydroxy-1,2-oxazol-5-yl)acetyl)-6-methoxy-1,2,3,4-tetrahydroisoquinoline-1-carboxamide]
RORγt [1]
  inhibition at 1 µM: 102%

## CCOc1ccc2c(n1)CCN(C(=O)c1cc(O)no1)[C@H]2C(=O)Nc1ccc([Si](C)(C)C)c(F)c1 [Example 149, (5R)-2-ethoxy-N-(3-fluoro-4-(trimethylsilyl)phenyl)-6-((3-hydroxy-1,2-oxazol-5-yl)carbonyl)-5,6,7,8-tetrahydro-1,6-naphthyridine-5-carboxamide]
RORγt [4]
  inhibition at 1 µM: 103%
RORγt [2]; Jurkat
  inhibition at 3 µM: 103%
RORγt [3]
  inhibition at 1 µM: 99%

## COc1ccc2c(n1)CCN(C(=O)c1cc(O)no1)[C@H]2C(=O)Nc1ccc(C(C)(C)C)c(F)c1 [Example 77, (5R)-N-(4-tert-butyl-3-fluorophenyl)-6-((3-hydroxy-1,2-oxazol-5-yl)carbonyl)-2-methoxy-5,6,7,8-tetrahydro-1,6-naphthyridine-5-carboxamide]
RORγt [4]
  inhibition at 1 µM: 101%
RORγt [2]; [5]
  inhibition at 3 µM: 100%
RORγt [3]
  inhibition at 1 µM: 91%

## COc1ccc2c(c1)CCN(C(=O)c1ccc(=O)[nH]c1)C2C(=O)Nc1ccc([Si](C)(C)C)cc1 (stereo not shown) [Example 2, 6-methoxy-2-((6-oxo-1,6-dihydropyridin-3-yl)carbonyl)-N-(4-(trimethylsilyl)phenyl)-1,2,3,4-tetrahydroisoquinoline-1-carboxamide]
RORγt [4]
  inhibition at 1 µM: 99.7%
RORγt [2]; Jurkat
  inhibition at 3 µM: 98.1%
RORγt [3]
  inhibition at 1 µM: 80.5%
